# From US8163269B2, “Bioactive stents for type II diabetics and methods for use thereof” (priority 2004, dated 2012)
# Test system: progenitor endothelial cells (PECs)
# Assay: trial PEC isolation, plating on coated plates
# Format: cell-based, human
# Conditions: fibronectin-coated versus gelatin-coated plates
# Text: PEC Isolations To establish the protocol for isolating the progenitor endothelial cells (PECs) from peripheral blood, blood from healthy, normal donors was used. A literature review generated multiple PEC isolation protocols (J.C.I. (2000) 105:71-77; Circ. (2003) 107:143-149; Circ. (2003) 107:1164-1169; Plast. Reconstruc. Surgr. (2004) 113:284; and Am. J. Physiol. Heart Circ. Physiol. (2004) 286:H1985-H1993). […] The flow chart in FIG. 2 presents a modified protocol followed in isolation of PECs.
# Cells were isolated from ˜120 milliliters of peripheral blood and then single aliquots of cells were plated in Endothelial Basal Medium and 5% FBS (Cambrex). The media was changed every 4-5 days. The total cell number obtained from the isolations was donor-dependent and ranged from 40 million to 200 million cells.
substance,measurement,value
fibronectin,attachment and growth of isolated cells on coated plates,attach and grow better on fibronectin-coated plates than on gelatin-coated plates
